≈ marks a conversion by molar mass, not a printed value. Where “and” joins values, the source holds several entries; their conditions need not be identical. Equal values may be shown once. Read-outs that look alike come from different tables or passages of the source.

Data set [1] relates to CCRF-CEM/VBL100 (vinblastine-resistant subline). Description: Tumor cell growth inhibition in vitro (XTT, 72 h). The format is cell-based, human. How it is done: (§1) The fresh medium containing each drug was replenished every 7-14 days. […] In each case ,the drug-exposed cells were resuspended in fresh media for a minimum of 4 days before the experiments for the cell-growth inhibition was carried out.
(§2) The cells were cultured at an initial density of 2-5×10^4 cells per ml. They were maintained in a 5% CO2-humidified atmosphere at 37° C. in RPMI mediun 1640 (GIBCO/BRL) containing penicillin (100 units/ml), streptomycin (100 μg/ml) (GIBCO/BRL), and 5% heat-inactivated fetal bovine serum. For solid tumor cells growing in a monolayer (such as MCF-7/Adr), cytotoxicitiy of the drug was determined in 96-well microtiter plates by using the sulforhodamine B method as described by Skehan et al (23) for measuring the cellular protein content. For cells that were grown in suspension (such as CCRF-CEM and its sublines), cytotoxicitiy was measured by using the 2,-3-bis(2-methoxy-4-nitro-5-sulfophenyl)-5carboxanilide)-2H terazodium hydroxide (XTT)-microculture tetrazonium method (24) in duplicate in 96-well microtiter plates. For both methods, the absorbance of each well was measured with a microplate reader (EL-340, Bio-Tek, Burlington, Vt.). Each run entailed six or seven concentrations of the tested drugs. Dose-effect relationship data were analyzed with the median-effect plot (25) by using a previously described computer program (26).
On the technique in general: Tetrazolium dyes change colour on reduction, which living cells bring about.

A further data set concerns DC-3F/ADII. The experiment in a line: Tumor cell growth inhibition in vitro. Particulars: DC-3F/ADII. The format is cell-based, hamster. The method, then: as §1, §2
Data set [2] deals with UL-3-C ovarian adenocarcinoma. The experiment in a line: Tumor cell growth inhibition in vitro. In kind it is cell-based, human. The method, then:
as §1, §2

Data set [3] deals with MCF-7/Adr mammary xenograft. Description: Human tumor xenograft in nude mice. The format is in vivo. A general note: In xenograft studies the graft and the host belong to different species.
In data set [4] the test system is K562 chronic myelocytic leukemia xenograft. The experiment in a line: Human tumor xenograft in nude mice. The conditions noted are these: for Lowest Average Tumor Size (T/C) / Tumor Disappearance: Taxol 20 mg/kg, Q2Dx5, 6-hr i.v. infusion. The format is in vivo. A digest of the protocol: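 Subcutaneous K562 xenografts (1×10^7 cells) in male athymic nu/nu mice; 6 mg/kg C-15-aza-EpoB by 6 h i.v. tail-vein infusion on days 20–30 every other day, then 30 mg/kg dEpoF likewise from day 42. Controls received Cremophor-ethanol (1:1); tumor volume measured by caliper every other day, mean mm^3±S.E.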

Data set [5] is described as follows: Body-weight decrease and lethality in tumor-bearing nude mice. The method, then:
Depending on the tumor type, treatment started on day 10 to day 21 when subcutaneous tumor size reached 35-200 mm^3, except otherwise indicated. Tumor size and body-weight were recorded every other day (Q2D) and, for humane reasons, the animals were sacrificed when tumor size reached ≧10% of body-weight. Each group, including untreated control, consisted of 3-5 animals unless otherwise indicated.
Essential features of useful cancer therapeutic agent involve not only high efficiency against cancer but also low toxicity toward the host, especially toward vital organs or functions [i.e. wide therapeutic window or high therapeutic index (LD50/ED50)].
Human tumor cells (5×10^6) or tumor tissue (30-50 mg) were implanted s.c. flank in nu/nu mice (Charles River Laboratories, Wilmington, Mass.). When tumor grew to a specified size, treatment was started by every-other day×5 with 6 hr i.v.-infusion, unless otherwise indicated. Tumor volume was measured with calipers in three dimensions (length×width×height or width). Body-weight changes and lethality were monitored every other day.

For data set [6], the system named is UL-3-B/Taxol. Particulars: UL-3-B/Taxol.
Data set [7] has as its system CCRF-CEM/Taxol (paclitaxel-resistant subline). Description: Tumor cell growth inhibition in vitro (XTT, 72 h). In kind it is cell-based, human. The method, then: as §1, §2
For data set [8], the system named is CCRF-CEM/VM1 (teniposide-resistant subline). Description: Tumor cell growth inhibition in vitro (XTT, 72 h). The format is cell-based, human. The method, then: as §1, §2
Data set [9] relates to DC-3F hamster lung fibroblasts. Description: Tumor cell growth inhibition in vitro. The format is cell-based. How it is done:
as §1, §2

Data set [10] relates to MX-1 mammary carcinoma xenograft.
Data set [11] relates to UL-3-B/Taxol. Description: cells. Particulars: Homo sapiens.
Setting [12] is: dEpoB 30 mg/kg, Taxol 24 mg/kg, Q2Dx5, 6-hr i.v. infusion.

With `CC(=O)O[C@H]1C(=O)[C@@]2(C)[C@H]([C@H](OC(=O)c3ccccc3)[C@]3(O)C[C@H](OC(=O)[C@H](O)[C@@H](NC(=O)c4ccccc4)c4ccccc4)C(C)=C1C3(C)C)[C@]1(OC(C)=O)CO[C@@H]1C[C@@H]2O` [Taxol, paclitaxel, reference compound], the IC50 in [1] (CCRF-CEM/VBL100, 72 h) was 5170 nM; with DC-3F/ADII, 20200 nM; in the data set with DC-3F/ADII (listed as Paclitaxel) it was 583 nM; in data set [2] it was 1.5 nM; in [2] (Homo sapiens) it was 1.6 nM; in the data set on UL-3-B/Taxol [6], 13.4 nM. The “Tumor Disappearance” value in data set [3] (setting [12]) is listed as 0/4; in data set [4] (K562, dEpoB 30 mg/kg), 0/6. For the same compound, the “Lowest Average Tumor Size (T/C)” value in [4] (K562, dEpoB 30 mg/kg) turned out to be 0.18. The “body-weight decrease without lethality at the doses used” value in data set [5] (mouse, in vivo) is 10-20%. In addition, the solubility in “physchem” (water) is ~600 µg/mL (≈ 0.703 mM).
Turning to `C/C1=C/C[C@@H](/C(C)=C/c2csc(C)n2)OC(=O)C[C@H](O)C(C)(C)C(=O)[C@H](C)[C@@H](O)[C@@H](C)CCC1` [dEpoB, 12,13-desoxyepothilone B], the “cross-resistance (fold of resistance vs parent cell line)” value in data set [7] (CCRF-CEM/Taxol vs CCRF-CEM) was 1.7 x and 1.2 x; in data set [8] (CCRF-CEM/VM1 vs CCRF-CEM), 1.5 x. In addition, the IC50 was 16.2 nM in data set [7] (Homo sapiens, CCRF-CEM, 72 h); 17 nM in [1] (Homo sapiens, CCRF-CEM, 72 h); 14 nM in data set [8] (Homo sapiens, CCRF-CEM, 72 h); 2.5 nM in data set [9]; 1.9 nM in data set [9] (Mesocricetus auratus, DC3F); 2.1 nM in data set [2] (Homo sapiens, read-out: IC50). For the same compound, in the data set with UL-3-B/Taxol [11], the half-inhibitory concentration (IC50) was determined as 7 nM. Also, the “Lowest Average Tumor Size (T/C)” value turned out to be 0.11 in data set [3] (setting [12]); 0 in [4] (K562, dEpoB 30 mg/kg); 0 in [10] (mouse, in vivo). Further, the “Tumor Disappearance” value in [3] (setting [12]) is 0/3; in data set [4] (K562, dEpoB 30 mg/kg), 5/5; in data set [10] (mouse, in vivo), 5/5. Besides, the “Therapeutic Effect Rank Order” value in data set [3] (i.p., ref 19 (Table 5)) is listed as “dEpoB>Camptothecin>Adriamycin>Taxol”; in [3] (i.v. infusion), “dEpoB>>VP-16, Taxol>VBL, Adriamycin”; in [4] (K562, i.v. infusion, FIG. 3 & 4), “dEpoB>>>VBL> Taxol> Adriamycin”; in data set [10] (mouse, in vivo) it was “dEpoB>Adriamycin>Taxol”; in data set [10] (mouse, in vivo, ip) it was “dEpoB>Camptothecin>Taxol>VBL, EpoB”. For the same compound, the “therapeutic effect of single course” value in [4] (K562, single course Q2D×3, dEpoB 30 mg/kg (FIG. 37)) is given as “disappearance of K562 xenografts for four weeks”. Besides, the therapeutic effect result in [4] (K562, dEpoB 30 mg/kg, Taxol 20 mg/kg 6 hr i.v. infusion, Adriamycin 3 mg/kg, vinblastine 2.5 mg/kg i.v., every other day from day 20 (FIG. 36)) is given as “Complete remission”. The “tumor size after treatment” value in data set [4] (K562 tumor as large as 880 mm^3 after paclitaxel, then dEpoB 30 mg/kg (Q2D×3)×3) was “less than 20 mm^3”. For the same compound, the “body-weight decrease without lethality at the doses used” value in data set [5] (dEpoB 30-40 mg/kg, paclitaxel 15-24 mg/kg, 6-hr i.v. infusion) was 10-20%. In addition, the “drop in body-weight during treatment without causing lethality” value in [5] (nude mice) was 23-29%. Also, in [10] (MX-1, dEpoB 30 mg/kg Q2D×6 (day 10-20) then Q2D×5 (day 26-34)), the “tumor disappearance on day 22” value is on record as “⅕”. For the same compound, the “tumor disappearance on day 38” value in data set [10] (MX-1, dEpoB 30 mg/kg Q2D×6 then Q2D×5) is “⅖”. Besides, the “body-weight gain during day 36-40” value in [10] (MX-1-bearing mice, after dEpoB second cycle) was “about 2 gm”. Besides, the “body-weight decrease on day 22” value in [10] (MX-1-bearing mice, dEpoB 30 mg/kg Q2D (day 10-20)) is reported as “about 3.5 gm”. Besides, the “body-weight drop on day 36” value in data set [10] (MX-1-bearing mice, dEpoB second cycle Q2D×5 (day 26-34)) was “about 4.1 gm”. Besides, in “physchem”, the solubility was ~10000 µg/mL (≈ 20.3 mM).

Usually IC50 stands for the concentration at which inhibition is half-maximal. For orientation: solubility means the dissolved amount per volume that the medium holds. Low readings indicate little dissolved substance, high ones much dissolved substance.

The values are drawn from US6867305B2, “Synthesis of epothilones, intermediates thereto and analogues thereof” (Sloan-Kettering Institute for Cancer Research, priority 1996, dated 2005).
